Experimental data published in patent US7091024B2, “Enzyme PDE XVI” (Pfizer Inc., priority 1999, dated 2006).
Where “and” joins values, the source holds several entries; their conditions need not be identical. Equal entries are not always repeated.

Tests used:
PDE_XIV [1] = target: T1, PDE_XIV (Homo sapiens, UniProt Q9NP56); test: Phosphodiesterase inhibition studies on purified expressed PDE_XIV (cAMP SPA); type: biochemical; conditions: for IC50: N = 2, read-out: IC50 FOR PDEXIV (μM) (N = 2)
T1 construct: made in house; host or cells: Sf9 insect cells (baculovirus, pFASTBAC-FLAG)
Method: This allows the specific retention on the column of the recombinant material (since this is fused to the FLAG epitope) whilst the endogenous insect proteins are washed off in the eluate. The recombinant material is then washed off under conditions of low pH. […] The purity of the material is assessed by coomassie staining after sodium dodecyl sulphate-polyacrylamide gel electrophoresis (SDS-PAGE) or through western blotting onto a nitro-cellulose membrane of an unstained SDS-PAGE (containing recombinant PDE) and analysis with the IgG1 monoclonal anti-FLAG epitope antibody. The PDE-FLAG fusion protein is detected due to the interaction between the anti-FLAG antibody and the FLAG epitope which is fused to the PDE protein. The phosphodiesterase activity of the purified PDE-FLAG fusion protein was assayed using a commercially available SPA (scintillation proximity assay) kit (Amersham-Amersham place, Little Chalfont, Bucks, HP7 9NA UK) for either cAMP and/or cGMP hydrolytic activity.

PDE_XIV [2] = target: T1, PDE_XIV; test: cAMP Scintillation Proximity Assays on purified expressed PDE_XIV (substrate hydrolysis); type: biochemical

T1 sequence (Q9NP56 whole entry): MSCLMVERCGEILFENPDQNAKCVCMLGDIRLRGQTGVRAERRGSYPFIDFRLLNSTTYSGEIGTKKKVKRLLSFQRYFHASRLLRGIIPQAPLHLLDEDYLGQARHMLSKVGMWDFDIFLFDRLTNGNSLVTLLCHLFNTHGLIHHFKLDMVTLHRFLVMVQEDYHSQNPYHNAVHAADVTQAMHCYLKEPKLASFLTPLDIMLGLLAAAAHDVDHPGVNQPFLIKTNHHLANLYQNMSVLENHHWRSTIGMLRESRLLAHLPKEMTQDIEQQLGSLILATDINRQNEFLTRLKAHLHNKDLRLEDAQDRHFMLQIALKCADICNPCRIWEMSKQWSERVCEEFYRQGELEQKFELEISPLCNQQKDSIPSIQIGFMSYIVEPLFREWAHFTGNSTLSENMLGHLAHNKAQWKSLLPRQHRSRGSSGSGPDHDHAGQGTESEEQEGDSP

sensitivity of PDE_XIV to the PDE inhibitor (PDE_XIV [1]) | IC50 (PDE_XIV [1]) | activity of PDE_XIV against the cyclic nucleotide (PDE_XIV [2]) | Structure (SMILES)
not to be sensitive | > 30 µM |  | COc1ccc([C@]2(C#N)CC[C@@H](C(=O)O)CC2)cc1OC1CCCC1 [Ariflo]
 | 10.7 µM |  | OCCN(CCO)c1nc(N2CCCCC2)c2nc(N(CCO)CCO)nc(N3CCCCC3)c2n1 [Dipyridamole]
 | 9.32 µM and 9.72 µM |  | CC(C)Cn1c(=O)n(C)c(=O)c2[nH]cnc21 [IBMX]
not to be sensitive | > 30 µM |  | COc1ccc(C2CNC(=O)C2)cc1OC1CCCC1 (stereo not drawn) [Rolipram]
 |  | no activity | Nc1nc2c(ncn2[C@@H]2O[C@@H]3COP(=O)(O)O[C@H]3[C@H]2O)c(=O)[nH]1 [cGMP]

Structure (SMILES) | sensitivity of PDE_XIV to the PDE inhibitor (PDE_XIV [1]) | IC50 (PDE_XIV [1]) | activity of PDE_XIV against the cyclic nucleotide (PDE_XIV [2])
Cc1[nH]c(=O)c(C#N)cc1-c1ccncc1 [Milrinone] | not to be sensitive | > 30 µM | 
